Active and inactive are the calls of the source. The rule behind the calls is not given here.
Tests used:
Mus musculus [1] = test: Neurotoxicity against Mus musculus albino (mouse) at 3 mg/kg, ip after 30 min by rotarod test; type: toxicity, organism-based; design: dose 3 mg/kg, route intraperitoneal; conditions: in vivo, 0.5 h
Mus musculus [2] = test: Anticonvulsant activity in Mus musculus albino (mouse) assessed as inhibition of PTZ-induced seizure at 3 mg/kg, ip administered 1 hr prior to PTZ-challenge measured after 2 to 4 min relative to control; type: functional, organism-based; design: dose 3 mg/kg
Mus musculus [3] = test: Neurotoxicity against Mus musculus albino (mouse) assessed as fall from horizontal screen at 3 mg/kg, ip after 30 min by horizontal screen test relative to control; type: toxicity, organism-based; design: dose 3 mg/kg, route intraperitoneal; conditions: in vivo, 0.5 h
Mus musculus [4] = test: Antipsychotic activity in Mus musculus albino (mouse) assessed as ptosis at 3 mg/kg, ip relative to control; type: functional; conditions: route intraperitoneal
Mus musculus [5] = test: Neurotoxicity against Mus musculus albino (mouse) assessed as inability to climb horizontal screen at 3 mg/kg, ip after 30 min by horizontal screen test relative to control; type: toxicity, organism-based; design: dose 3 mg/kg, route intraperitoneal; conditions: in vivo, 0.5 h
Mus musculus [6] = test: CNS depressant activity in Mus musculus albino (mouse) assessed as immobility time at 3 mg/kg, ip measured after 24 hr by forced swim test (reference value: 120 +/- 5.1 secs); type: functional; conditions: route intraperitoneal

SMILES | Activity (Mus musculus [1]) | inhibition (Mus musculus [2]) | Activity (Mus musculus [3]) [%] | Activity (Mus musculus [4]) [%] | Activity (Mus musculus [5]) [%] | Time (Mus musculus [6]) [s]
COc1ccc(C2N(C)c3ccccc3C(=O)NN2c2ccccc2)cc1 (configuration not stated) | Toxic | inactive | 16.7 | 75 | 0 | 141
CN1CN(C(=O)c2ccncc2)NC(=O)c2ccccc21 | Toxic | inactive | 33.3 | 100 | 16.7 | 190
CN1c2ccccc2C(=O)NN(c2ccccc2)C1c1ccc(Br)cc1 (configuration not stated) | Toxic | inactive | 16.7 | 0 | 16.7 | 140
CN1C(=S)N(c2ccccc2)NC(=O)c2ccccc21 | Non-toxic | inactive | 0 | 100 | 0 | 129
CN1c2ccccc2C(=O)NN(c2ccccc2)C1c1ccccc1[N+](=O)[O-] (configuration not stated) | Toxic | inactive | 16.7 | 0 | 16.7 | 141
COc1cc(C2N(C)c3ccccc3C(=O)NN2c2ccccc2)cc(OC)c1OC (configuration not stated) | Non-toxic | inactive | 0 | 50 | 0 | 135
CN1c2ccccc2C(=O)NN(c2ccccc2)C1c1ccc([N+](=O)[O-])cc1 (configuration not stated) | Non-toxic | inactive | 0 | 50 | 0 | 125
CN1CCN(C2=Nc3cc(Cl)ccc3Nc3ccccc32)CC1 [CLOZAPINE] | Toxic | inactive | 50 | 100 | 16.7 | 194
CN1CN(c2ccccc2)NC(=O)c2ccccc21 | Toxic | inactive | 50 | 100 | 0 | 178
CN1c2ccccc2C(=O)NN(c2ccccc2)C1c1ccc(Cl)cc1 (configuration not stated) | Toxic | inactive | 33.3 | 50 | 33.3 | 156
CN1c2ccccc2C(=O)NN(c2ccccc2)C1c1ccc(O)cc1 (configuration not stated) | Toxic | inactive | 16.7 | 75 | 0 | 151
CN1c2ccccc2C(=O)NN(c2ccccc2)C1c1ccccc1 (configuration not stated) | Non-toxic | inactive | 0 | 0 | 0 | 118
